We go through two compounds from patent US8945595B2, “Insect repellent and attractants” (The Regents of the University of California, priority 2009, dated 2015).

Experiment [1] has as its system wild-type Drosophila. Description: T-maze choice assay, avoidance behavior to CO2, wild-type flies. Type of experiment: in vivo. To be noted: 0.67% CO2; 1-hexanol 10^-1, 2,3-butanedione 10^-2. The method, then:
(a) A t-maze is used to show preference to a test odor or to a solvent. Flies are starved 24 hrs prior to assay. All assays performed for 1-min in the dark. A negative preference index indicates avoidance. (a) Flies in a T-maze were offered a choice between a 15 ml tube infused with 0.1ml of CO2 prior to start of assay, and another that was infused with air. (b) wildtype and Or83b−/− flies were presented with CO2, a mixture of CO2 and 2,3-butanedione (d4on), or d4on alone. (c) Flies were exposed to 10 ul d4on 10^−2 for 1 min, allowed to recover for 2 min in clean air and then assayed for avoidance to CO2. A control exposure to 1 min of 2-methylphenol (2 mpol) at 10^−2 and then a recovery period of 2 min is also assayed for avoidance behavior to CO2. (d) Flies are exposed to d4on for 1 min, allowed to recover for 2 min, and then assayed for behavior to ethyl acetate (2AC). Behavior to 2AC without pre-exposure is also measured. […]
T-maze behavioral testing using Drosophila stress odour, CO2, and mixtures were using techniques known in the art, with some modifications. […] The avoidance response was calculated as a Preference Index (PI)=(number of flies in test arm−number of flies in control arm)/(total number of flies in assay). […] The avoidance response was calculated as a Preference Index (PI)=(number of flies in test arm−number of flies in control arm)/(total number of flies in assay). […]

In experiment [2] the test system is wild-type Drosophila. Description: T-maze assay, avoidance to Drosophila stress odour (dSO). Type of experiment: in vivo. Particulars: odourant added to dSO. The method, then: T-maze behavior assay: a, Mean Preference Index (PI) of wild-type flies, given a choice between room air in 15 ml tube and either 0.1 ml of pure CO2 in a 15 ml tube (CO2), or binary mixtures of 0.1 ml pure CO2 and 1-hexanol (CO2+6ol) at 10^−1 dilution or 2,3-butanedione (CO2+d4on) at 10^−2 dilution, also in 15 ml tubes (see Methods). b, Mean PI of mutant flies given choices as in a. c, Mean PI of wild-type flies given choices between room air and odour collected from 70 untreated flies (mock), or 70 vortexed “emitter” flies of Drosophila stress odour (dSO), or mixtures of dSO with indicated odourants. n=6-9 trials (˜40 flies each), error bars=s.e.m. (T-test, *P<0.0001, **P<0.005, ***P<0.05).
T-maze behavioral testing using Drosophila stress odour, CO2, and mixtures were using techniques known in the art, with some modifications. In particular, the entire headspace from 15 ml capped “emitter” or “mock” fly tubes was withdrawn using fresh syringes and needles and infused into fresh capped 15 ml plastic tubes immediately prior to use in the T-maze. […] The avoidance response was calculated as a Preference Index (PI)=(number of flies in test arm−number of flies in control arm)/(total number of flies in assay). […] The avoidance response was calculated as a Preference Index (PI)=(number of flies in test arm−number of flies in control arm)/(total number of flies in assay). […]

The structures appear in SMILES notation. “Also recorded” adds a separate entry of the source.

Turning to `CC(=O)C(C)=O` [2,3-butanedione], the “avoidance behavior to CO2 (Preference Index)” value in the experiment on wild-type Drosophila [1] is on record as “reduction in mean avoidance behavior; also recorded: abolished”. The “avoidance behavior to dSO (Preference Index)” value with wild-type Drosophila [2] is reported as “significantly reduced avoidance behavior; also recorded: completely abolished”.

For the compound `CCCCCCO` [1-hexanol], the “avoidance behavior to CO2 (Preference Index)” value with wild-type Drosophila [1] is “reduction in mean avoidance behavior”. Further, the “avoidance behavior to dSO (Preference Index)” value in the experiment on wild-type Drosophila [2] is “significantly reduced avoidance behavior”.
